{"source": "paper PMC11211886", "about": "(Frontiers in Pharmacology, 2024)", "key": {"[1]": {"assay": "Human PK projection by allometric scaling", "conditions": "allometric scaling with correction of MLP and fu", "excerpt": "Translational prediction of human plasma total clearance (CL) and volume of distribution at steady state (Vss) was projected using the AS approach for different preclinical species (mice, rats, dogs, and monkeys). The mean value of unbound plasma fraction (fu) in animals was applied to transform pharmacokinetic parameters (Vss or CL) to the corresponding free drug clearance (CLu) and free drug volume of distribution (Vss,u). The CLu in preclinical species was scaled to CLu in humans according to the following equations with consideration of the maximum lifespan potential (MLP) as a correction factor according to the rule of exponents (RoEs) ([Mahmood and Balian, 1996]), and Vss,u in preclinical species was scaled to Vss,u in humans simply based on BW according to the following equations. Both CLu and Vss,u in humans were converted to CL and Vss using the mean value of fu in humans. CLu×MLP=a×BW^b, log (CLu×MLP)=log a+b log BW, Vss,u=a×BW^b, log (Vss,u)=log a+b log BW,\nwhere BW represents the body weight of the standard species (0.02, 0.2, 10, 4, and 70 kg for mice, rats, dogs, cynomolgus monkeys, and humans, respectively), a represents allometric coefficients, and b is allometric exponents."}, "plasma proteins": {"tested_on": "plasma proteins", "assay": "Plasma protein binding (RED), monkey plasma", "format": "in vitro ADME", "procedure": "The plate containing plasma and buffer was equilibrated for 6 h in a 37°C water shaking bath. After incubation, aliquots of buffer and plasma (20 µL) on both sides were collected and precipitated using organic solvents. […] The post-dialysis recovery of amdizalisib was also measured."}, "[2]": {"assay": "Single-dose PK in cynomolgus monkeys (IV/PO)", "format": "in vivo, cynomolgus monkey"}, "CYP1A2": {"molecular_target": "T1, CYP1A2 (Homo sapiens, UniProt P05177)", "T1 construct": "tissue Life Technologies (Durham, NC, USA); host or cells: human liver microsomes", "T1 sequence (P05177 1-516)": "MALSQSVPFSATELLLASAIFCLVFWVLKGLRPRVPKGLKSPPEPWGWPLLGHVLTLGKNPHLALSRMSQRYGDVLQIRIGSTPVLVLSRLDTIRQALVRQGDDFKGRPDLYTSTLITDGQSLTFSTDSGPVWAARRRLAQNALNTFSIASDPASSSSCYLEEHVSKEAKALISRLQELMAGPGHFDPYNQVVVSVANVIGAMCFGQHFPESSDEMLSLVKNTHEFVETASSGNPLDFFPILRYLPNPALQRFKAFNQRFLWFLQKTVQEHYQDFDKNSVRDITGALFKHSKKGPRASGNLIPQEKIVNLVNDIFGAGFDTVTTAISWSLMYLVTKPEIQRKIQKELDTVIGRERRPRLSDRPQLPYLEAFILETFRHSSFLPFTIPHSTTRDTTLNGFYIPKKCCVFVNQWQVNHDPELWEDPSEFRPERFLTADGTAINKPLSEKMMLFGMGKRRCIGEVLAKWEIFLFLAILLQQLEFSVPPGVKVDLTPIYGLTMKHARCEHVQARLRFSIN", "assay": "Reversible CYP inhibition in HLM, CYP1A2 (phenacetin)", "format": "in vitro ADME", "conditions": "for enzyme activity remaining: CYP1A2, HLM", "procedure": "The markers used to determine the activities of CYP isoforms were phenacetin O-deethylation for CYP1A2 (probe substrate: 50 µM phenacetin), bupropion hydroxylation for CYP2B6 (probe substrate: 70 µM bupropion), paclitaxel 6α-hydroxylation for CYP2C8 (probe substrate: 10 µM paclitaxel), diclofenac 4′-hydroxylation for CYP2C9 (probe substrate: 5 µM diclofenac), S-(+)-mephenytoin 4′-hydroxylation for CYP2C19 (probe substrate: 20 µM S-(+)-mephenytoin), dextromethorphan O-demethylation for CYP2D6 (probe substrate: 6 µM dextromethorphan), chlorzoxazone 6′-hydroxylation for CYP2E1 (probe substrate: 70 µM chlorzoxazone), and testosterone 6β-hydroxylation and midazolam 1′-hydroxylation for CYP3A4/5 (probe substrate: 45 µM testosterone and 5 µM midazolam). […] Alpha-naphthoflavone (0.04 µM), 2-phenyl-2-(1-piperidinyl)propane (5 µM), quercetin (1 µM), sulfaphenazole (0.5 µM), ticlopidine (4 µM), quinidine (0.2 µM), diethyldithiocarbamate (20 µM), and ketoconazole (0.05 µM) were used as positive inhibitors of CYP1A2, 2B6, 2C8, 2C9, 2C19, 2D6, 2E1, and 3A4, respectively. The vehicle control was prepared in the same composition as inhibitor solutions but free of inhibitors. The concentrations of probe substrates were close to Km values that were determined in-house and within the range recommended by the FDA ([Huang et al., 2007]). Reaction mixtures were incubated at 37°C for 5, 20, or 30 min, depending on the probe substrates of CYP isoforms. The reactions were terminated by adding cold acetonitrile containing IS, and the terminated incubation mixtures were centrifuged at 3,000 g for 10 min before LC-MS/MS analysis."}, "[3]": {"assay": "Metabolic stability in rat liver microsomes", "format": "in vitro ADME", "conditions": "for CLint scaled at 1 µM: pH 7.4, Predicted CL int, iv vivo", "procedure": "FMO was deactivated by heating liver microsomes at 45°C for 5 min. […] (1) metabolic clearance is the major mechanism of clearance; (2) liver is the major organ of clearance; and (3) oxidation is the major metabolic pathway. CLint,in vitro=k / Cmicrosomes , Scaled CLint,in vivo=CLint,in vitro×microsomes yield×liver weight, where Cmicrosomes means the experimental protein concentration (0.5 mg/mL) in the incubation system."}, "[4]": {"conditions": "both sexes, cynomolgus monkey, in vivo, iv, 1 mg/kg"}, "[5]": {"conditions": "both sexes, cynomolgus monkey, in vivo, po, 5 mg/kg"}}, "note": "“And” between values parts separate entries of the source, which are not always exact repeats. Identical values can stand only once. Like-named read-outs stand apart in the source and are kept apart here.", "data": [{"smiles": "C[C@H](Nc1ncnc(N)c1C#N)c1cc2ncc(Cl)n2nc1-c1ccccc1", "note": "[Amdizalisib]", "values": [{"measurement": "predicted human CL", "setting": "[1]", "result": 2.57, "unit": "mL/min/kg"}, {"measurement": "Binding fraction to plasma proteins, Monkey", "setting": "plasma proteins; 0.1 µM", "result": "90.6 ± 4.56", "unit": "%"}, {"measurement": "Binding fraction to plasma proteins, Monkey", "setting": "plasma proteins; 1 µM", "result": "89.7 ± 0.22", "unit": "%"}, {"measurement": "Binding fraction to plasma proteins, Monkey", "setting": "plasma proteins; 20 µM", "result": "88.9 ± 0.38", "unit": "%"}, {"measurement": "FPO", "setting": "[2]; Cynomolgus monkey, fasted, PO 5 mg/kg, 5 mg/kg", "result": "30.8 ± 8.48", "unit": "%"}, {"measurement": "AUC(0-inf)", "setting": "[2]; [4]", "result": 1520, "unit": "ng·h/mL"}, {"measurement": "AUC(0-t)", "setting": "[2]; [4]", "result": 1490, "unit": "ng·h/mL"}, {"measurement": "MRT", "setting": "[2]; [4]", "result": "2.2 ± 0.551", "unit": "h"}, {"measurement": "clearance", "setting": "[2]; [4]", "result": "11.3 ± 2.36", "unit": "mL/min/kg"}, {"measurement": "AUC(0-inf)", "setting": "[2]; [5]", "result": 2390, "unit": "ng·h/mL"}, {"measurement": "AUC(0-t)", "setting": "[2]; [5]", "result": 2330, "unit": "ng·h/mL"}, {"measurement": "Cmax", "setting": "[2]; [5]", "result": "480 ± 147", "unit": "ng/mL"}, {"measurement": "MRT", "setting": "[2]; [5]", "result": "4.9 ± 1", "unit": "h"}, {"measurement": "Tmax", "setting": "[2]; [5]", "result": "2 ± 0.632", "unit": "h"}, {"measurement": "half-life", "setting": "[2]; [5]", "result": "3.1 ± 0.89", "unit": "h"}, {"measurement": "Vd", "setting": "[2]; both sexes, in vivo, Cynomolgus monkey, fasted, IV 1 mg/kg, read-out: Vss", "result": "1.45 ± 0.207", "unit": "L/kg"}, {"measurement": "half-life", "setting": "[2]; both sexes, in vivo, Cynomolgus monkey, fasted, IV 1 mg/kg, read-out: t1/2 (converted)", "result": "2.82 ± 0.469", "unit": "h"}, {"measurement": "CL as % of the hepatic blood flow", "setting": "[2]; both, cynomolgus monkey, in vivo, iv", "result": 25.7, "unit": "%"}, {"measurement": "FPO", "setting": "[2]; both, cynomolgus monkey, in vivo, po, 5 mg/kg", "result": 30.8, "unit": "%"}, {"measurement": "IC50", "setting": "CYP1A2", "result": "> 50", "unit": "µM"}, {"measurement": "enzyme activity remaining", "setting": "CYP1A2; 0.08 μM", "result": "104% and 96.1%"}, {"measurement": "enzyme activity remaining", "setting": "CYP1A2; 0.4 μM", "result": "102% and 99.1%"}, {"measurement": "enzyme activity remaining", "setting": "CYP1A2; 2 μM", "result": "94.1% and 95.9%"}, {"measurement": "enzyme activity remaining", "setting": "CYP1A2; 10 μM", "result": "97.6% and 90.1%"}, {"measurement": "enzyme activity remaining", "setting": "CYP1A2; 50 μM", "result": "99.1% and 99.6%"}, {"measurement": "Predicted CL sys", "setting": "[3]; female rat liver microsomes, normal", "result": 10.7, "unit": "mL/min/kg"}, {"measurement": "CLint scaled at 1 µM", "setting": "[3]; female, rat, microsomes", "result": 13.3, "unit": "mL/min/kg"}, {"measurement": "half-life at 1 µM", "setting": "[3]; female, rat, microsomes, pH 7.4, in vitro t1/2", "result": 3.12, "unit": "h"}, {"measurement": "CLint scaled at 1 µM", "setting": "[3]; male, rat, microsomes", "result": 65.9, "unit": "mL/min/kg"}, {"measurement": "half-life at 1 µM", "setting": "[3]; male, rat, microsomes, pH 7.4, in vitro t1/2", "result": 0.632, "unit": "h"}, {"measurement": "half-life at 1 µM", "setting": "[3]; pH 7.4, male rat liver microsomes, FMO deactivation, read-out: in vitro t1/2", "result": 0.695, "unit": "h"}]}]}
